Earlier results in US20090169586A1, “STABLE PACKAGED DOSAGE FORM AND PROCESS THEREFOR” (priority 2006, published 2009).

Columns and labels:
[1] = test system: skin's protection against sunburn; settings: 24 mg taken for more than 10 weeks
[2] = test system: patients with exercise-induced asthma (EIA); settings: daily dose of 64 mg, 38 patients; all placebo patients showed more than 15% FEV1 reduction
[3] = test system: children exposed to long-term doses of radiation; settings: 40 mg capsules twice daily for 3 months, 709 children
[4] = test system: patients with long-standing non-insulin dependent diabetes mellitus (NIDDM); settings: 60 mg/day for 3 weeks, 20 NIDDM patients

## CC1=C(/C=C/C(C)=C/C=C/C(C)=C/C=C/C=C(C)/C=C/C=C(C)/C=C/C2=C(C)CCCC2(C)C)C(C)(C)CCC1 [beta-carotene from Dunaliella, beta-carotene]
[1]
  skin's protection against sunburn: double the skin's protection against sunburn
[2]
  patients protected against EIA: 53%
[3]
  serum markers for oxidisation: reduced serum markers for oxidisation
[4]
  LDL oxidation: normalised high LDL oxidation
